Earlier results as cited in patent publication US20260257261A1, “BIOMIMETIC MULTIFUNCTIONAL LIGNOCELLULOSIC DEGRADABLE SORBENT FOR ENVIRONMENTAL REMEDIATION” (THE TEXAS A&M UNIVERSITY SYSTEM, priority 2022, published 2026).

Details: previous studies by Mahapatra et al. and others

Row | Compound | toxicity relative to PFOA (C8)
1 | O=C(O)C(F)(F)C(F)(F)C(F)(F)C(F)(F)F [PUPA] | much less toxic
2 | O=C(O)C(F)(F)C(F)(F)C(F)(F)F [PFBA] | much less toxic
3 | O=C(O)C(F)(F)C(F)(F)C(F)(F)C(F)(F)C(F)(F)F [PFHA, perfluorohexanoic acid] | much less toxic
